The results in this text go back to patent US11147272B2, “Pyridone compounds and agricultural and horticultural fungicides comprising the same as active ingredients” (MITSUI CHEMICALS AGRO, INC., priority 2017, dated 2021).

Each structure is given as a SMILES string.

In one assay the test system is Botrytis cinerea. The assay can be described thus: Test Example B: Gray mold on tomato. The note with it: for Test B control value class: class of control value.
In assay [1] the test system is Colletotrichum orbiculare. The experiment in a line: Test Example H: Anthracnose on cucumber. The conditions noted are these: for Test H control value class: Anthracnose on cucumber (Sagami Hanjiro), 2.5 ml/pot, assessed 6 to 10 days after inoculation; for Test H control value: 6 to 10 days after inoculation.
The test system of assay [2] is Blumeria graminis f. sp. hordei. The experiment in a line: Test Example D: Powdery mildew on barley. The note with it: for Test D control value class: class of control value.
In another assay the test system is Puccinia recondita. The experiment in a line: Test Example E: Brown rust on wheat. In kind it is in vivo. The note with it: for Test E control value class: class of control value.
For a further assay, the system named is Plasmopara viticola. The assay can be described thus: Test Example G: Downy mildew on vine. The conditions noted are these: for Test G control value class: Downy mildew on vine (Neomuscat), 2.5 ml/pot, assessed 7 to 10 days after inoculation; for Test G control value: 7 to 10 days after inoculation.
The next assay relates to Alternaia brassicicola. The assay can be described thus: Test Example C: Alternaria sooty spot on cabbage. The note with it: for Test C control value class: class of control value. In kind it is in vivo. An excerpt: Seeds of a test plant (cabbage variety: Shikidori) were planted and cultivated until the cotyledons extended.
<Control Value> Control value=100{1−(n/3)}

Another assay deals with Magnaporthe grisea. The experiment in a line: whole plant or invertebrate. The format is in vivo. The conditions noted are these: for Test A control value class: class of control value.
Another assay has as its system Phytophthora infestans. The experiment in a line: whole plant or invertebrate. In kind it is in vivo. The conditions noted are these: for Test F control value class: class of control value.
The mark [3] stands for this setting: Alternaria sooty spot on cabbage.
Setting [4] is: Gray mold on tomato, control value class.
[5] abbreviates: Anthracnose on cucumber, 250 ppm spray.
Where [6] appears, read: Powdery mildew on barley, control value class.
The mark [7] stands for this setting: Brown rust on wheat, control value class.
[8] abbreviates: Downy mildew on vine, 250 ppm spray.
Where [9] appears, read: Alternaria sooty spot on cabbage, control value class.
Setting [10] is: Blast on rice, control value class.
[11] abbreviates: Late blight on tomato, control value class.
[12] abbreviates: 250 ppm drug solution sprayed on test plant.
Setting [13] is: 250 ppm drug solution sprayed (2.5 ml/pot), cucumber Sagami Hanjiro.
[14] abbreviates: 250 ppm drug solution sprayed (2.5 ml/pot), grape Neomuscat.

As for `CCn1c(-c2ccc(Br)cc2F)c(CC(C)C)ccc1=O` [compound 136], the “Test B control value class” value with Botrytis cinerea (Gray mold on tomato) is recorded as “H (more than 50% control value)”. Further, the “Test H control value class” value in assay [1] (250 ppm spray) is on record as “L (50% or less control value)”. Also, the “Test D control value class” value in assay [2] (Powdery mildew on barley) is reported as “H (more than 50% control value)”. Besides, the “Test E control value class” value in the assay on Puccinia recondita (Brown rust on wheat) is “H (more than 50% control value)”. In the assay on Plasmopara viticola (250 ppm spray), the “Test G control value class” value was “H (more than 50% control value)”. Also, in the assay with Alternaia brassicicola (setting [3]), the “Test C control value class” value was “L (50% or less control value)”. In the assay on Magnaporthe grisea (Blast on rice), the “Test A control value class” value is “H (more than 50% control value)”. The “Test F control value class” value with Phytophthora infestans (Late blight on tomato) is on record as “L (50% or less control value)”.

With `CCC(C)c1ccc(=O)n(CC)c1-c1c(F)cc(OC)cc1F` (stereo not shown) [compound 34], the “Test B control value class” value in the assay on Botrytis cinerea (Gray mold on tomato) is “H (more than 50% control value)”. Further, the “Test H control value class” value in assay [1] (250 ppm spray) is “H (more than 50% control value)”. Further, in assay [2] (Powdery mildew on barley), the “Test D control value class” value is given as “H (more than 50% control value)”. Further, the “Test E control value class” value with Puccinia recondita (Brown rust on wheat) is on record as “H (more than 50% control value)”. Further, the “Test G control value class” value in the assay on Plasmopara viticola (250 ppm spray) is recorded as “H (more than 50% control value)”. In the assay with Alternaia brassicicola (setting [3]), the “Test C control value class” value is reported as “H (more than 50% control value)”. Besides, the “Test A control value class” value in the assay on Magnaporthe grisea (Blast on rice) is listed as “H (more than 50% control value)”. Further, in the assay on Phytophthora infestans (Late blight on tomato), the “Test F control value class” value was “L (50% or less control value)”.

Take `CCn1c(-c2ccc(F)cc2Cl)c(CC=O)cc(Cl)c1=O` [compound 298]: in the assay on Botrytis cinerea (setting [4]), the “Test B control value” is given as “L (50% or less control value)”. For the same compound, the “Test H control value” in assay [1] (setting [5]) was “H (more than 50% control value)”. Also, in assay [2] (setting [6]), the “Test D control value” was “L (50% or less control value)”. In addition, the “Test E control value” in the assay on Puccinia recondita (setting [7]) was “L (50% or less control value)”. In addition, the “Test G control value” with Plasmopara viticola (setting [8]) is reported as “L (50% or less control value)”. Besides, the “Test C control value” in the assay with Alternaia brassicicola (setting [9]) is “H (more than 50% control value)”. In the assay with Magnaporthe grisea (setting [10]), the “Test A control value” was “L (50% or less control value)”. Besides, the “Test F control value” in the assay on Phytophthora infestans (setting [11]) is reported as “L (50% or less control value)”.

Turning to `CCC(OC)c1cc(Cl)c(=O)n(C)c1-c1c(F)cc(F)cc1F` (stereo not shown) [compound 502], in the assay with Botrytis cinerea (setting [12]), the “Test B control value” is given as “H (more than 50% control value)”. Also, the “Test H control value” in assay [1] (setting [13]) is reported as “H (more than 50% control value)”. Also, the “Test D control value” in assay [2] (setting [12]) is “H (more than 50% control value)”. The “Test E control value” in the assay on Puccinia recondita (setting [12]) is “H (more than 50% control value)”. For the same compound, the “Test G control value” in the assay with Plasmopara viticola (setting [14]) is reported as “H (more than 50% control value)”. Besides, the “Test C control value” in the assay with Alternaia brassicicola (setting [12]) was “H (more than 50% control value)”. In addition, the “Test A control value” in the assay on Magnaporthe grisea (setting [12]) was “H (more than 50% control value)”. Besides, in the assay on Phytophthora infestans (setting [12]), the “Test F control value” is “L (50% or less control value)”.

For `CCC(C)(O)c1cc(Cl)c(=O)n(C)c1-c1c(F)cc(F)cc1F` (stereo not shown) [compound 505], in the assay on Botrytis cinerea (setting [12]), the “Test B control value” is reported as “H (more than 50% control value)”. In addition, in assay [1] (setting [13]), the “Test H control value” is on record as “H (more than 50% control value)”. Also, in assay [2] (setting [12]), the “Test D control value” is on record as “H (more than 50% control value)”. In addition, in the assay on Puccinia recondita (setting [12]), the “Test E control value” is recorded as “H (more than 50% control value)”. For the same compound, the “Test G control value” in the assay with Plasmopara viticola (setting [14]) is reported as “H (more than 50% control value)”. Further, the “Test C control value” in the assay with Alternaia brassicicola (setting [12]) is recorded as “H (more than 50% control value)”. The “Test A control value” with Magnaporthe grisea (setting [12]) was “H (more than 50% control value)”. Moreover, the “Test F control value” in the assay with Phytophthora infestans (setting [12]) is given as “L (50% or less control value)”.

For the compound `CCn1c(-c2ccc(F)cc2Cl)c(CC(C)C)cc(Br)c1=O` [compound 100], in the assay on Botrytis cinerea (Gray mold on tomato), the “Test B control value class” value was “H (more than 50% control value)”. In addition, the “Test H control value class” value in assay [1] (250 ppm spray) is given as “H (more than 50% control value)”. Also, the “Test D control value class” value in assay [2] (Powdery mildew on barley) is “H (more than 50% control value)”. Besides, the “Test E control value class” value with Puccinia recondita (Brown rust on wheat) is given as “H (more than 50% control value)”. Moreover, the “Test G control value class” value in the assay on Plasmopara viticola (250 ppm spray) was “H (more than 50% control value)”. In the assay with Alternaia brassicicola (setting [3]), the “Test C control value class” value was “H (more than 50% control value)”. Besides, in the assay on Magnaporthe grisea (Blast on rice), the “Test A control value class” value is listed as “H (more than 50% control value)”. The “Test F control value class” value in the assay on Phytophthora infestans (Late blight on tomato) is recorded as “L (50% or less control value)”.

`CCn1c(-c2c(F)cc(F)cc2F)c(C(C)(CC)OC)cc(Br)c1=O` (stereo not shown) [compound 483]: in the assay with Botrytis cinerea (setting [12]), the “Test B control value” is “H (more than 50% control value)”. Further, the “Test H control value” in assay [1] (setting [13]) is “H (more than 50% control value)”. The “Test D control value” in assay [2] (setting [12]) is “H (more than 50% control value)”. The “Test E control value” with Puccinia recondita (setting [12]) was “H (more than 50% control value)”. Moreover, in the assay on Plasmopara viticola (setting [14]), the “Test G control value” is recorded as “H (more than 50% control value)”. Also, the “Test C control value” in the assay with Alternaia brassicicola (setting [12]) is recorded as “H (more than 50% control value)”. For the same compound, in the assay with Magnaporthe grisea (setting [12]), the “Test A control value” was “H (more than 50% control value)”. For the same compound, the “Test F control value” with Phytophthora infestans (setting [12]) was “L (50% or less control value)”.

As for `CCn1c(-c2ccc(OC)cc2F)c(CC(C)C)cc(Cl)c1=O` [compound 115], the “Test B control value class” value in the assay with Botrytis cinerea (Gray mold on tomato) was “H (more than 50% control value)”. In assay [1] (250 ppm spray), the “Test H control value class” value is “H (more than 50% control value)”. The “Test D control value class” value in assay [2] (Powdery mildew on barley) is on record as “H (more than 50% control value)”. Further, the “Test E control value class” value with Puccinia recondita (Brown rust on wheat) was “H (more than 50% control value)”. Moreover, the “Test G control value class” value in the assay on Plasmopara viticola (250 ppm spray) is listed as “L (50% or less control value)”. Also, the “Test C control value class” value in the assay with Alternaia brassicicola (setting [3]) is listed as “H (more than 50% control value)”. Besides, the “Test A control value class” value in the assay with Magnaporthe grisea (Blast on rice) is listed as “H (more than 50% control value)”. The “Test F control value class” value with Phytophthora infestans (Late blight on tomato) is recorded as “L (50% or less control value)”.

For `CCCCCCC1=C(c2ccc(F)cc2Cl)N(CC)C(=O)CC1` [compound 282], the “Test B control value” with Botrytis cinerea (setting [4]) is “L (50% or less control value)”. For the same compound, the “Test H control value” in assay [1] (setting [5]) is “L (50% or less control value)”. In assay [2] (setting [6]), the “Test D control value” is “H (more than 50% control value)”. Also, in the assay with Puccinia recondita (setting [7]), the “Test E control value” is on record as “L (50% or less control value)”. Moreover, in the assay on Plasmopara viticola (setting [8]), the “Test G control value” is “L (50% or less control value)”. Besides, in the assay with Alternaia brassicicola (setting [9]), the “Test C control value” is “L (50% or less control value)”. In addition, the “Test A control value” in the assay with Magnaporthe grisea (setting [10]) was “L (50% or less control value)”. The “Test F control value” in the assay with Phytophthora infestans (setting [11]) is listed as “L (50% or less control value)”.

`CCC(C)C1=C(c2c(F)cc(OC)cc2F)N(CC)C(=O)C(Br)C1` (stereo not shown) [compound 36]: the “Test B control value class” value with Botrytis cinerea (Gray mold on tomato) is listed as “H (more than 50% control value)”. The “Test H control value class” value in assay [1] (250 ppm spray) is reported as “H (more than 50% control value)”. Moreover, the “Test D control value class” value in assay [2] (Powdery mildew on barley) is on record as “H (more than 50% control value)”. The “Test E control value class” value in the assay on Puccinia recondita (Brown rust on wheat) is “H (more than 50% control value)”. In the assay with Plasmopara viticola (250 ppm spray), the “Test G control value class” value is reported as “H (more than 50% control value)”. The “Test C control value class” value in the assay with Alternaia brassicicola (setting [3]) is recorded as “H (more than 50% control value)”. In addition, the “Test A control value class” value in the assay with Magnaporthe grisea (Blast on rice) is given as “H (more than 50% control value)”. In addition, the “Test F control value class” value in the assay with Phytophthora infestans (Late blight on tomato) is reported as “L (50% or less control value)”.

As to `CCCc1ccc(=O)n(CC)c1-c1c(F)cc(O)cc1F` [compound 438], the “Test B control value” in the assay with Botrytis cinerea (setting [12]) is reported as “H (more than 50% control value)”. Moreover, in assay [1] (setting [13]), the “Test H control value” was “L (50% or less control value)”. For the same compound, the “Test D control value” in assay [2] (setting [12]) was “L (50% or less control value)”. For the same compound, the “Test E control value” in the assay on Puccinia recondita (setting [12]) is “H (more than 50% control value)”. Further, the “Test G control value” with Plasmopara viticola (setting [14]) was “L (50% or less control value)”. Moreover, the “Test C control value” in the assay on Alternaia brassicicola (setting [12]) is given as “H (more than 50% control value)”. In the assay with Magnaporthe grisea (setting [12]), the “Test A control value” is given as “L (50% or less control value)”. Further, in the assay on Phytophthora infestans (setting [12]), the “Test F control value” is on record as “L (50% or less control value)”.
